Among the data in US20130116241A1, “NOVEL INHIBITOR COMPOUNDS OF PHOSPHODIESTERASE TYPE 10A” (AbbVie Inc., priority 2011, published 2013) are IC50 values, retold here.

For this test, the target named is human PDE10A (UniProt Q9Y233). Briefly: Measurement of PDE activity (recombinant enzyme, HTRF cAMP kit). Conditions: Table 1, substrate 20 nM for PDE10, 60 minutes at 29 C, read-out: IC50. Type of test: biochemical. The method in brief:
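HTRF detection of cAMP left after hydrolysis, expressed as percent of uninhibited control to derive IC50. Reaction: serially diluted inhibitor mixed with recombinant enzyme, started with 20 nM cAMP, 60 min at 29 °C in Tris-HCl pH 7.5 buffer containing MgCl2 and BSA.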

Structures can show the parent of a compound that is named as a salt.

Sequence of human PDE10A (Q9Y233 290-1055 limits assumed): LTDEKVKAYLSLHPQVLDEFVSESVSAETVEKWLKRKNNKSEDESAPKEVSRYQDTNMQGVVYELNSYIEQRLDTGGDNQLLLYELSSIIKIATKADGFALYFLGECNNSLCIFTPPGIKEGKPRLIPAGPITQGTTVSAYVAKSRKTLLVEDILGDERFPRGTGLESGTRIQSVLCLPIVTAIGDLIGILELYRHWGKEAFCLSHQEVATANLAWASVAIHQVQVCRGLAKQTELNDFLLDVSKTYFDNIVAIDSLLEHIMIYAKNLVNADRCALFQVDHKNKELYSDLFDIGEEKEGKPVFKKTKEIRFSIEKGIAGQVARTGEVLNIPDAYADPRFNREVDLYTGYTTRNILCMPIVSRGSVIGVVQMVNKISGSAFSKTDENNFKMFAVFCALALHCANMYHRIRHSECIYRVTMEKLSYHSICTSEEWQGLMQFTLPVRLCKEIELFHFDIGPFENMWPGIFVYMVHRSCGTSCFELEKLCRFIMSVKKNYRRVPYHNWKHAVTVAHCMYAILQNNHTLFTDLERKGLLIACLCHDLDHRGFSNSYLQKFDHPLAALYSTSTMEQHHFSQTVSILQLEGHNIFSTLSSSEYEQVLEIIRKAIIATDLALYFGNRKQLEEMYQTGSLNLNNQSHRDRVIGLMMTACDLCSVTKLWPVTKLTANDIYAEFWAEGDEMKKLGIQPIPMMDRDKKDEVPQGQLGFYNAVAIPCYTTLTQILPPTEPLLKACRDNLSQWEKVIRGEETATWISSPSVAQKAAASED

On to `O=c1c2c(-c3cc(F)cc(F)c3)cccc2cnn1CCc1ccc2ccccc2n1` [Example 156, 8-(3,5-Difluorophenyl)-2-[2-(quinolin-2-yl)ethyl]phthalazin-1(2H)-one], for which the 50% inhibitory concentration (IC50) fell in the range of 100 to 200 nM.

As for `COc1cc(F)cc(-c2cccc3cnn(CCc4ccc5ccccc5n4)c(=O)c23)c1` [Example 157, 8-(3-Fluoro-5-methoxyphenyl)-2-[2-(quinolin-2-yl)ethyl]phthalazin-1(2H)-one], the IC50 was in the range of 200 to 500 nM.

With `O=c1c2c(-c3ccccc3)cccc2cnn1CCc1ccc2ccccc2n1` [Example 159, 8-Phenyl-2-[2-(quinolin-2-yl)ethyl]phthalazin-1(2H)-one], the half-maximal inhibitory concentration (IC50) was less than 100 nM.

Regarding `Cn1nccc1-c1cccc2cnn(CCc3ccc4ccccc4n3)c(=O)c12` [Example 161, 8-(1-Methyl-1H-pyrazol-5-yl)-2-[2-(quinolin-2-yl)ethyl]phthalazin-1(2H)-one hydrochloride], the 50% inhibitory concentration (IC50) was less than 100 nM.

Turning to `Cc1ccc(-c2cccc3cnn(CCc4ccc5ccccc5n4)c(=O)c23)c(F)c1` [Example 163, 8-(2-Fluoro-4-methylphenyl)-2-[2-(quinolin-2-yl)ethyl]phthalazin-1(2H)-one], the IC50 is 200 to 500 nM.

Consider `O=c1c2c(-c3cccnc3)cccc2cnn1CCc1cn2ccccc2n1` [Example 165, 2-[2-(Imidazo[1,2-a]pyridin-2-yl)ethyl]-8-(pyridin-3-yl)phthalazin-1(2H)-one], for which the half-inhibitory concentration (IC50) was 200 to 500 nM.

Regarding `O=c1c2c(-c3ccncc3)cccc2cnn1CCc1cn2ccccc2n1` [Example 166, 2-[2-(Imidazo[1,2-a]pyridin-2-yl)ethyl]-8-(pyridin-4-yl)phthalazin-1(2H)-one], the concentration for half-maximal inhibition (IC50) was less than 100 nM.

Take `COc1cnccc1-c1cccc2cnn(CCc3cn4ccccc4n3)c(=O)c12` [Example 167, 2-[2-(Imidazo[1,2-a]pyridin-2-yl)ethyl]-8-(3-methoxypyridin-4-yl)phthalazin-1(2H)-one]: the IC50 fell in the range of 200 to 500 nM.

Take `O=c1c2c(-c3cncnc3)cccc2cnn1CCc1cn2ccccc2n1` [Example 168, 2-[2-(Imidazo[1,2-a]pyridin-2-yl)ethyl]-8-(pyrimidin-5-yl)phthalazin-1(2H)-one]: the half-maximal inhibitory concentration (IC50) is less than 100 nM.

With `Cn1ccc(-c2cccc3cnn(CCc4cn5ccccc5n4)c(=O)c23)n1` [Example 169, 2-[2-(Imidazo[1,2-a]pyridin-2-yl)ethyl]-8-(1-methyl-1H-pyrazol-3-yl)phthalazin-1(2H)-one], the IC50 fell in the range of 200 to 500 nM.

As to `O=c1c2c(-c3ccoc3)cccc2cnn1CCc1cn2ccccc2n1` [Example 170, 8-(Furan-3-yl)-2-[2-(Imidazo[1,2-a]pyridin-2-yl)ethyl]phthalazin-1(2H)-one], the half-maximal inhibitory concentration (IC50) is less than 100 nM.

With `O=C1Cc2ccc(-c3cccc4cnn(CCc5cn6ccccc6n5)c(=O)c34)cc2N1` [Example 171, 2-[2-(Imidazo[1,2-a]pyridin-2-yl)ethyl]-8-(2-oxo-2,3-dihydro-1H-indol-6-yl)phthalazin-1(2H)-one], the half-maximal inhibitory concentration (IC50) is less than 100 nM.

`O=c1c2c(N3CCS(=O)(=O)CC3)cccc2cnn1CCc1ccc2ccccc2n1` [Example 173, 8-(1,1-Dioxidothiomorpholin-4-yl)-2-[2-(quinolin-2-yl)ethyl]-phthalazin-1(2H)-one]: the half-inhibitory concentration (IC50) is less than 100 nM.

For the compound `O=c1c2c(N3CCOCC3)cccc2cnn1CCc1cn2ccccc2n1` [Example 174, 2-[2-(Imidazo[1,2-a]pyridin-2-yl)ethyl]-8-(morpholin-4-yl)phthalazin-1(2H)-one], the IC50 was less than 100 nM.

`O=c1c2c(N3CCS(=O)(=O)CC3)cccc2cnn1CCc1cn2ccccc2n1` [Example 175, 8-(1,1-Dioxidothiomorpholin-4-yl)-2-[2-(imidazo[1,2-a]pyridin-2-yl)ethyl]phthalazin-1(2H)-one]: the 50% inhibitory concentration (IC50) was 100 to 200 nM.

In the case of `O=c1c2c(N3CC4COCC4C3)cccc2cnn1CCc1cn2ccccc2n1` (stereo not shown) [Example 176, 2-[2-(Imidazo[1,2-a]pyridin-2-yl)ethyl]-8-(tetrahydro-1H-furo[3,4-c]pyrrol-5(3H)-yl)phthalazin-1(2H)-one hydrochloride], the IC50 was less than 100 nM.
